According to PubChem BioAssay AID2060625 (Molecular Pharmacology Branch, DTP, NCI, 2025):
pIC50: −log10 of the molar value.

Test system: 186277-243-T-J2-PDC spheroids with HUVEC/MSC, viability
Assay: Anticancer human tumor 186277-243-T-J2-PDC patient-derived colon adenocarcinoma cell line growth inhibition [CLK]
Settings: for pIC50: curve of first compound; for viability, T/C: stronger effect = lower value; active = viability on the fitted dose curve at most 10% of control; inactive = the rest
From the text: A high-throughput screen of multi-cell type tumor spheroids was designed to identify active combinations of […] and targeted small molecules. Complex spheroids include a stromal component modeled by human endothelial cells (HUVEC) and fibroblasts modeled by human mesenchymal stem cells (MSCs). The concentration ranges selected for each drug and investigational agent were based upon clinically achievable concentrations if the clinical Cmax of the agent was known.
Compounds. The drugs and investigational agents: cirtuvivint (SM08502; NSC835563), CC-671 (NSC850746), vemurafenib (NSC761431), tapotoclax (NSC804041), sotorasib (NSC818433), adagrasib (NSC831453), MRTX-1133 (NSC836407), BAY2416964 (NSC825713), copanlisib (NSC816437), inavolisib (NSC800729), abemaciclib (NSC768073), osimertinib (NSC779217), entinostat (NSC756642), eltanexor (KPT-8602, NSC794443), venetoclax (NSC766270), ceralasertib (NSC777638), bortezomib (NSC756655), olaparib (NSC753686), talazoparib (NSC767125), alisertib (NSC759677), peposertib (NSC802822), gemcitabine (NSC613327), 5-fluorouracil (NSC19893), SN-38 (NSC673596), oxaliplatin (NSC266046), paclitaxel (NSC125973), and doxorubicin (NSC123127), were obtained from the National Cancer Institute (NCI) Developmental Therapeutics Program Chemical Repository. The FDA-approved anticancer drug set is available from the Developmental Therapeutics Program at https://dtp.cancer.gov/organization/dscb/obtaining/available plates.htm. […] The stock solutions were prepared in dimethyl sulfoxide (DMSO, Sigma-Aldrich, St. Louis, MO, cat. D2650), except for the platinum complexes which were prepared in saline (Quality Biological, Gaithersburg, MD, cat. 114-055-101), at 800-fold the tested concentration and stored at -70 degrees C prior to their use. All drugs and investigational agents were tested over a range starting from a high concentration at or near the clinical Cmax and decreasing in half-log increments. If the clinical Cmax for an agent had not been determined, the highest concentration tested was 10 microM.
Cell Culture. All cells were maintained in an incubator at 37 degrees C and 5% CO2 with 95% humidity. The PDC lines were cultured according to standard operating procedures established by the NCI PDMR. Briefly, all PDCs were thawed and cultured in Matrigel-coated flasks prepared with a working solution of 1X Ham's F-12 nutrient mix, without supplementation (Invitrogen, Waltham, MA, cat. 11765054), 100 U/mL penicillin-streptomycin (Invitrogen, cat. 15140122), and 2.5% Matrigel (Corning Inc., Corning, NY, cat. 354248) for the first three passages. The 947758-054-R-J2-PDC line was cultured in 6B/Colon 1A media, which includes advanced DMEM/F-12 (Thermo Fisher Scientific, cat. 12634028), 10 mM HEPES (Thermo Fisher Scientific, cat. 15630080), 1X GlutaMAX supplement (Thermo Fisher Scientific, cat. 35050061), 0.1 mg/mL primocin (InvivoGen, cat. ant-pm-2), 10% defined fetal bovine serum, heat inactivated (HyClone Laboratories Inc., cat. SH30070.03HI), 1.25 mM N-Acetyl-L-cysteine (Sigma-Aldrich, cat. A9165), 10 mM nicotinamide (Sigma-Aldrich, cat. N0636), 1X B-27 supplement (Thermo Fisher Scientific, cat. 17504044), 1X N-2 supplement (Thermo Fisher Scientific, cat. 17502048), and 10 microM Y-27632 dihydrochloride (Tocris Bioscience, cat. 1254). The 876862-298-R-J1-PDC was cultured in 6E media, which includes all 6B/Colon 1A media components plus 50% L-WRN conditioned media (ATCC, cat. CRL-3276), 50 ng/mL recombinant human EGF recombinant protein (hEGF; Thermo Fisher Scientific, cat. PHG0311), 10 ng/mL recombinant human fibroblast growth factor 10 (hGFG-10; PeproTech, cat. 100-26), 1 ng/mL recombinant human fibroblast growth factor 2 (hFGF-2; PeproTech, cat. 100-18B), and 1 µM prostaglandin E2 (PGE2; Tocris, cat. 2296). The 227483-062-R1-J1-PDC line was cultured in Panc media, containing all 6E components except hFGF-2, with the addition of 500 nM SB-431542 (Selleckchem, cat. S1067) and 10 nM gastrin (Tocris, cat. 3006). […]
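Also: compound exposure lasted seven days before readout.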
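For viability, T/C in this document: 100% = DMSO vehicle control wells.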

COc1c(OCCCN2CCOCC2)ccc2c3n(c(=NC(=O)c4cnc(N)nc4)nc12)CCN3 + CNC(=O)c1ccc(Nc2nc(OC3CCCC3)c3c(-c4ccc5nc(C)oc5c4)c[nH]c3n2)c(OC)c1
> 8.50: pIC50 (second compound 0.1 µM) | pIC50 (second compound 0.316 µM) | pIC50 (second compound 1 µM) | pIC50 (second compound 3.16 µM) | pIC50 (second compound 10 µM)
inactive: viability, T/C (second compound 0.0316 µM, first compound 0.00316 µM) 86.7% | viability, T/C (second compound 0.0316 µM, first compound 0.01 µM) 93.3% | viability, T/C (second compound 0.0316 µM, first compound 0.0316 µM) 47.4% | viability, T/C (second compound 0.0316 µM, first compound 0.1 µM) 20% | viability, T/C (second compound 0.0316 µM, first compound 0.316 µM) 13.3% | viability, T/C (second compound 0.0316 µM, first compound 1 µM) 7.3% | viability, T/C (second compound 0.1 µM, first compound 0.00316 µM) 49.4% | viability, T/C (second compound 0.1 µM, first compound 0.01 µM) 42.1% | viability, T/C (second compound 0.1 µM, first compound 0.0316 µM) 23.9% | viability, T/C (second compound 0.1 µM, first compound 0.1 µM) 9.52% | viability, T/C (second compound 0.316 µM, first compound 0.00316 µM) 29.3% | viability, T/C (second compound 0.316 µM, first compound 0.01 µM) 22.8% | viability, T/C (second compound 0.316 µM, first compound 0.0316 µM) 12.3% | viability, T/C (second compound 1 µM, first compound 0.00316 µM) 17.2% | viability, T/C (second compound 1 µM, first compound 0.01 µM) 14.2% | viability, T/C (second compound 3.16 µM, first compound 0.00316 µM) 17% | viability, T/C (second compound 3.16 µM, first compound 0.01 µM) 15% | viability, T/C (second compound 10 µM, first compound 0.00316 µM) 21% | viability, T/C (second compound 10 µM, first compound 0.01 µM) 14.5%
7.52: pIC50 (second compound 0.0316 µM)
active: viability, T/C (second compound 0.1 µM, first compound 0.316 µM) 9.27% | viability, T/C (second compound 0.1 µM, first compound 1 µM) 5.48% | viability, T/C (second compound 0.316 µM, first compound 0.1 µM) 6.69% | viability, T/C (second compound 0.316 µM, first compound 0.316 µM) 6.54% | viability, T/C (second compound 0.316 µM, first compound 1 µM) 3.73% | viability, T/C (second compound 1 µM, first compound 0.0316 µM) 9.1% | viability, T/C (second compound 1 µM, first compound 0.1 µM) 6.05% | viability, T/C (second compound 1 µM, first compound 0.316 µM) 5.94% | viability, T/C (second compound 1 µM, first compound 1 µM) 2.82% | viability, T/C (second compound 3.16 µM, first compound 0.0316 µM) 8.99% | viability, T/C (second compound 3.16 µM, first compound 0.1 µM) 4.81% | viability, T/C (second compound 3.16 µM, first compound 0.316 µM) 4.85% | viability, T/C (second compound 3.16 µM, first compound 1 µM) 1.73% | viability, T/C (second compound 10 µM, first compound 0.0316 µM) 6.54% | viability, T/C (second compound 10 µM, first compound 0.1 µM) 6.2% | viability, T/C (second compound 10 µM, first compound 0.316 µM) 3.21% | viability, T/C (second compound 10 µM, first compound 1 µM) 2.06%
